Data taken from ChEMBL document CHEMBL1201862, “PubChem BioAssay data set” (2004).
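A five-concentration, 48-hour dose response in 96-well plates underlies each endpoint, interpolated linearly between surrounding concentrations. GI50 marks 50% less growth.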 Activity calls are given as the source filed them. Rule as the data show it: active = GI50 up to about 1.1 µM and inactive = higher.

Experiments:
Assay in all cases: NCI tumour cell line growth inhibition, 48 h
[1] = tested on: 786-0
[2] = tested on: A498
[3] = tested on: A549
[4] = tested on: ACHN
[5] = tested on: BT-549
[6] = tested on: CCRF-CEM
[7] = tested on: COLO 205
[8] = tested on: DU-145
[9] = tested on: HCC 2998
[10] = tested on: HCT-116
[11] = tested on: HCT-15
[12] = tested on: HOP-62
[13] = tested on: HT-29
[14] = tested on: Hs-578T
[15] = tested on: IGROV-1
[16] = tested on: K562
[17] = tested on: LOX IMVI
[18] = tested on: M14
[19] = tested on: MCF7
[20] = tested on: MDA-MB-231
[21] = tested on: MDA-MB-435
[22] = tested on: MDA-N
[23] = tested on: MOLT-4
[24] = tested on: Malme-3M
[25] = tested on: NCI-H226
[26] = tested on: NCI-H23
[27] = tested on: NCI-H460
[28] = tested on: NCI-H522
[29] = tested on: NCI/ADR-RES
[30] = tested on: OVCAR-3
[31] = tested on: OVCAR-4
[32] = tested on: OVCAR-5
[33] = tested on: OVCAR-8
[34] = tested on: PC-3
[35] = tested on: RPMI-8226
[36] = tested on: RXF 393
[37] = tested on: SF-268
[38] = tested on: SF-295
[39] = tested on: SF-539
[40] = tested on: SK-MEL-28
[41] = tested on: SK-MEL-2
[42] = tested on: SK-MEL-5
[43] = tested on: SK-OV-3
[44] = tested on: SN12C
[45] = tested on: SNB-19
[46] = tested on: SNB-75
[47] = tested on: SR
[48] = tested on: SW-620
[49] = tested on: T47D
[50] = tested on: TK-10
[51] = tested on: U-251
[52] = tested on: UACC-257
[53] = tested on: UACC-62
[54] = tested on: UO-31
[55] = tested on: CAKI-1
[56] = tested on: HOP-92
[57] = tested on: KM12

In the case of COc1cc(OCc2ccc3oc(=O)c(-c4ccccc4)nc3c2)cc(OC)c1OC, the GI50 [1] is reported as > 100 µM (inactive), the GI50 [2] is reported as > 100 µM (inactive) and the GI50 [3] is reported as > 100 µM (inactive). For the same compound, the GI50 [4] was > 100 µM (inactive), the GI50 [5] was > 100 µM (inactive) and the GI50 [6] was > 100 µM (inactive). The GI50 [7] was > 100 µM (inactive), the GI50 [8] was > 100 µM (inactive) and the GI50 [9] was > 100 µM (inactive). For the same compound, the GI50 [10] was > 100 µM (inactive), the GI50 [11] was > 100 µM and the GI50 [12] was > 100 µM (inactive). For the same compound, the GI50 [13] was > 100 µM (inactive), the GI50 [14] was > 100 µM (inactive) and the GI50 [15] was > 100 µM (inactive). For the same compound, the GI50 [16] was > 100 µM (inactive), the GI50 [17] was > 100 µM (inactive) and the GI50 [18] was > 100 µM (inactive). The GI50 [19] was > 100 µM (inactive), the GI50 [20] was > 100 µM (inactive) and the GI50 [21] was > 100 µM (inactive). The GI50 [22] was > 100 µM (inactive), the GI50 [23] was > 100 µM (inactive) and the GI50 [24] was > 100 µM (inactive). The GI50 [25] was > 100 µM (inactive), the GI50 [26] was > 100 µM (inactive) and the GI50 [27] was > 100 µM (inactive). The GI50 [28] was > 100 µM (inactive), the GI50 [29] was > 100 µM (inactive) and the GI50 [30] was > 100 µM (inactive). The GI50 [31] was > 100 µM (inactive), the GI50 [32] was > 100 µM (inactive) and the GI50 [33] was > 100 µM (inactive). For the same compound, the GI50 [34] was > 100 µM (inactive), the GI50 [35] was > 100 µM (inactive) and the GI50 [36] was > 100 µM (inactive). For the same compound, the GI50 [37] was > 100 µM (inactive), the GI50 [38] was > 100 µM (inactive) and the GI50 [39] was > 100 µM (inactive). The GI50 [40] was > 100 µM (inactive), the GI50 [41] was > 100 µM (inactive) and the GI50 [42] was > 100 µM (inactive). The GI50 [43] was > 100 µM (inactive), the GI50 [44] was > 100 µM (inactive) and the GI50 [45] was > 100 µM (inactive). For the same compound, the GI50 [46] was > 100 µM (inactive), the GI50 [47] was > 100 µM (inactive) and the GI50 [48] was > 100 µM (inactive). The GI50 [49] was 38.9 µM (inactive), the GI50 [50] was > 100 µM (inactive) and the GI50 [51] was > 100 µM (inactive). The GI50 [52] was > 100 µM (inactive), the GI50 [53] was > 100 µM (inactive) and the GI50 [54] was > 100 µM (inactive).
For O=C(c1ccco1)C1CC(c2ccc3ccccc3c2O)=NN1c1ccc([N+](=O)[O-])cc1[N+](=O)[O-] (stereo unspecified), the GI50 [1] was 31 µM (inactive), the GI50 [2] was 23.7 µM (inactive) and the GI50 [3] was 22.3 µM (inactive). The GI50 [4] was 20.5 µM (inactive), the GI50 [5] was 29.7 µM (inactive) and the GI50 [55] was 33.5 µM (inactive). The GI50 [6] was 2.29 µM (inactive), the GI50 [7] was 16.3 µM (inactive) and the GI50 [8] was 37.6 µM (inactive). The GI50 [9] was 27.7 µM (inactive), the GI50 [10] was 23.1 µM (inactive) and the GI50 [11] was 17.9 µM. The GI50 [12] was 33.3 µM (inactive), the GI50 [56] was 12.4 µM (inactive) and the GI50 [13] was 13.7 µM (inactive). For the same compound, the GI50 [14] was 15.7 µM (inactive), the GI50 [15] was 14 µM (inactive) and the GI50 [57] was 3.95 µM (inactive). The GI50 [18] was 22.9 µM (inactive), the GI50 [19] was 12.8 µM (inactive) and the GI50 [20] was 20.7 µM (inactive). The GI50 [21] was 28.9 µM (inactive), the GI50 [22] was 28.6 µM (inactive) and the GI50 [23] was 1.71 µM (inactive). The GI50 [24] was 37 µM (inactive), the GI50 [25] was 20.6 µM (inactive) and the GI50 [26] was 22.7 µM (inactive). For the same compound, the GI50 [27] was 10.5 µM (inactive), the GI50 [28] was 7.98 µM (inactive) and the GI50 [29] was 21.1 µM (inactive). The GI50 [30] was 28.1 µM (inactive), the GI50 [31] was 15.6 µM (inactive) and the GI50 [32] was 16 µM (inactive). The GI50 [33] was 23.8 µM (inactive), the GI50 [34] was 16.4 µM (inactive) and the GI50 [36] was 29.9 µM (inactive). The GI50 [37] was 19.4 µM (inactive), the GI50 [38] was 18.1 µM (inactive) and the GI50 [39] was 28 µM (inactive). The GI50 [40] was 40.6 µM (inactive), the GI50 [41] was 24.5 µM (inactive) and the GI50 [43] was 28.1 µM (inactive). The GI50 [44] was 32.8 µM (inactive), the GI50 [46] was 12.5 µM (inactive) and the GI50 [47] was 1.01 µM (active). For the same compound, the GI50 [48] was 34.5 µM (inactive), the GI50 [49] was 31.9 µM (inactive) and the GI50 [50] was 30 µM (inactive). For the same compound, the GI50 [51] was 28.4 µM (inactive), the GI50 [52] was 28.6 µM (inactive) and the GI50 [53] was 17.6 µM (inactive). The GI50 [54] was 16.6 µM (inactive).
